This note sets out measurements from patent US11066416B2, “Rapafucin derivative compounds and methods of use thereof” (The Johns Hopkins University, priority 2016, dated 2021).

Some results are limits rather than exact numbers.

For test [1], the system named is nucleoside uptake (3H-Thymidine). Put plainly: Rel.Uptake: nucleoside uptake, single concentration assay, cell line as indicated in each table. The conditions noted are these: response relative to DMSO. Type of test: cell-based. Summed up:
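3H-thymidine uptake measured in the indicated cell lines (e.g. 293T) grown in complete media. IC50 scored relative to DMSO control as Low >600 nM, Medium 300-600 nM, High <300 nM; Rel.Uptake single-concentration response vs DMSO scored Low >0.6, Medium 0.3-0.6, High <0.3.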

Test [2] deals with 293T. Put plainly: Nucleoside uptake assay (uptake) using 3H-Thymidine, 293T. Format: cell-based. The conditions noted are these: 293T cells. How it is done:
Nucleoside Uptake Assay (uptake). Nuceloside uptake assays were performed with using 3H-Thymidine as described in Guo et al. (2018) Nat. Chem. 11:254-63. Specific cell lines are indicated in each assay and cultured in complete growth media. Activity is scored according to the IC50 values relative to DMSO control. “Low” indicates an IC50 greater than 600 nM, “Medium” indicates an IC50 between 300 nM and 600 nM “High” indicates an IC50 less than 300 nM. “Rel.Uptake” refers to uptake activity characterization relative to a single concentration assay. “Low” indicates a response greater than 0.6 times the activity relative to DMSO, “Medium” indicates a response between 0.6 and 0.3 times the activity relative to DMSO, “High” indicates a response less than 0.3 times the activity relative to DMSO.

Where [3] appears, read: IC50 class relative to DMSO control.

`COc1ccc(CC[C@H]2OC(=O)[C@@H]3CCCCN3C(=O)C(=O)C(C)(C)COC(=O)C=CCCN(C)NC(c3ccccc3)C(=O)N(C)[C@@H](Cc3ccccc3)C(=O)N3CCC[C@@H]3C(=O)N(C)[C@@H](CC(C)C)C(=O)C(=O)CCOc3cccc2c3)cc1OC` (stereo partly drawn) [Compound 1556]: in test [1] (293T, nucleoside uptake), the “Rel. Uptake, 293T” value is reported as “low”. Also, in test [2] (setting [3]), the “Uptake, 293T” value was “low”.

Turning to `COc1ccc(CC[C@H]2OC(=O)[C@@H]3CCCCN3C(=O)C(=O)C(C)(C)COC(=O)C=CCCN(C)C(=O)[C@H](CC(C)C)N(C)C(=O)[C@H]3CCCN3C(=O)[C@H](Cc3ccccc3)N(C)C(=O)[C@H](CC(=O)OC(C)(C)C)NC(=O)CCC(=O)Nc3cccc2c3)cc1OC` [Compound 1088], the “Rel. Uptake, 293T” value in test [1] (293T cells) was “low”. Besides, in test [2] (setting [3]), the “Uptake, 293T” value is given as “low”.

For `COc1ccc(CC[C@H]2NC(=O)[C@@H]3CCCCN3C(=O)C(=O)C(C)(C)COC(=O)C=CCCN(C)C(=O)[C@H](CC(C)C)N(C)C(=O)[C@H]3CCCN3C(=O)[C@H](Cc3ccccc3)N(C)C(=O)C(c3ccccc3)NC(=O)CCC(=O)Nc3cccc2c3)cc1OC` (stereo partly drawn) [Compound 1557], the “Rel. Uptake, 293T” value in test [1] (293T, nucleoside uptake) is reported as “high”. Besides, in test [2] (setting [3]), the “Uptake, 293T” value is “high”.

Take `COc1ccc(CC[C@H]2OC(=O)[C@@H]3CCCCN3C(=O)C(=O)C(C)(C)COC(=O)C=CCCN(C)C(=O)[C@H](CC(C)C)N(C)C(=O)[C@H]3CCCN3C(=O)[C@H](Cc3ccc(CNC(=O)CN(C)C)cc3)NC(=O)[C@H](c3ccccc3)NC(=O)CCC(=O)Nc3cccc2c3)cc1OC` [Compound 1587]: in test [1] (293T, nucleoside uptake), the “Rel. Uptake, 293T” value is reported as “Low (“Low” indicates a response greater than 0.6 times the activity relative to DMSO)”. The compound also yielded a half-maximal inhibitory concentration (IC50) in test [2] (Table 14) of over 600 nM.

On to `COc1ccc(CC[C@H]2OC(=O)[C@@H]3CCCCN3C(=O)C(=O)C(C)(C)COC(=O)C=CCCN(C)C(=O)[C@H](CC(C)C)N(C)C(=O)[C@H]3CCCN3C(=O)[C@H](Cc3ccc(C(=O)Nc4ccccc4)cc3)NC(=O)[C@H](c3ccccc3)NC(=O)CCC(=O)Nc3cccc2c3)cc1OC` [Compound 1559], for which, in test [1] (293T, nucleoside uptake), the “Rel. Uptake, 293T” value is “medium”. In addition, the “Uptake, 293T” value in test [2] (Table 15) is “medium”.

For `COc1ccc(CC[C@H]2OC(=O)[C@@H]3CCCCN3C(=O)C(=O)C(C)(C)COC(=O)C=CCCN(C)C(=O)[C@H](CC(C)C)N(C)C(=O)[C@H]3CCCN3C(=O)[C@H](Cc3ccc(C(=O)NCCO)cc3)NC(=O)[C@H](c3ccccc3)NC(=O)CCC(=O)Nc3cccc2c3)cc1OC` [Compound 1558], in test [1] (293T, nucleoside uptake), the “Rel. Uptake, 293T” value was “high”. Also, the “Uptake, 293T” value in test [2] (Table 15) is reported as “high”.

In the case of `COc1ccc(CC[C@H]2OC(=O)[C@@H]3CCCCN3C(=O)C(=O)C(C)(C)COC(=O)C=CCCN(C)C(=O)[C@H](CC(C)C)N(C)C(=O)[C@H]3CCCN3C(=O)[C@H](Cc3ccc(O)cc3)NC(=O)C(c3ccccc3)NC(=O)CCC(=O)Nc3cccc2c3)cc1OC` (stereo partly drawn) [Compound 1522], the “Rel. Uptake, 293T” value in test [1] (293T, nucleoside uptake) was “high”. In addition, in test [2] (setting [3]), the “Uptake, 293T” value is “high”.

Regarding `COc1ccc(CC[C@H]2OC(=O)[C@@H]3CCCCN3C(=O)C(=O)C(C)(C)COC(=O)C=CCCN(C)C(=O)[C@H](CC(C)C)N(C)C(=O)[C@H]3CCCN3C(=O)[C@H](Cc3ccc(NC(=O)Cc4cccnc4)cc3)NC(=O)[C@H](c3ccccc3)NC(=O)CCC(=O)Nc3cccc2c3)cc1OC` [Compound 1589], the “Rel. Uptake, 293T” value in test [1] (293T, nucleoside uptake) is listed as “Low (“Low” indicates a response greater than 0.6 times the activity relative to DMSO)”. This compound also had an IC50 in test [2] (Table 14) of over 600 nM.

Take `COc1ccc(CC[C@H]2OC(=O)[C@@H]3CCCCN3C(=O)C(=O)C(C)(C)COC(=O)C=CCCN(C)C(=O)[C@H](CC(C)C)N(C)C(=O)[C@H]3CCCN3C(=O)[C@H](Cc3ccc(CC(=O)OC(C)(C)C)cc3)NC(=O)C(c3ccccc3)NC(=O)CCC(=O)Nc3cccc2c3)cc1OC` (stereo partly drawn) [Compound 1081]: the “Rel. Uptake, 293T” value in test [1] (293T) is reported as “medium”. Further, in test [2] (setting [3]), the “Uptake, 293T” value is “medium”.

As for `COc1ccc(CC[C@H]2OC(=O)[C@@H]3CCCCN3C(=O)C(=O)C(C)(C)COC(=O)C=CCCN(C)C(=O)[C@H](CC(C)C)N(C)C(=O)[C@H]3CCCN3C(=O)[C@H](Cc3cccc(NC(C)=O)c3)NC(=O)[C@H](c3ccccc3)NC(=O)CCC(=O)Nc3cccc2c3)cc1OC` [Compound 1588], the “Rel. Uptake, 293T” value in test [1] (293T, nucleoside uptake) is “High (“High” indicates a response less than 0.3 times the activity relative to DMSO)”. In addition, in test [2] (Table 14), the half-inhibitory concentration (IC50) is under 300 nM.

`COc1ccc(CC[C@H]2OC(=O)[C@@H]3CCCCN3C(=O)C(=O)C(C)(C)COC(=O)C=CCCN(C)C(=O)[C@H](CC(C)C)N(C)C(=O)[C@H]3CCCN3C(=O)[C@H](Cc3ccc(CNC(=O)Cc4ccccc4)cc3)NC(=O)[C@H](c3ccccc3)NC(=O)CCC(=O)Nc3cccc2c3)cc1OC` [Compound 1586]: the “Rel. Uptake, 293T” value in test [1] (293T, nucleoside uptake) was “Med”. In test [2] (Table 14), the “Uptake, 293T” value is “Med”.

Consider `COc1ccc(CC[C@H]2OC(=O)[C@@H]3CCCCN3C(=O)C(=O)C(C)(C)COC(=O)C=CCCN(C)C(=O)[C@H](CC(C)C)N(C)C(=O)[C@H]3CCCN3C(=O)[C@H](Cc3ccc(OCc4ccccc4)cc3)NC(=O)C(c3ccccc3)NC(=O)CCC(=O)Nc3cccc2c3)cc1OC` (stereo partly drawn) [Compound 1082], for which the “Rel. Uptake, 293T” value in test [1] (293T) is “low”. Also, in test [2] (setting [3]), the “Uptake, 293T” value is reported as “low”.

The IC50 is the concentration at which inhibition is half-maximal.
